Experimental data: patent publication US10738101B2, “Method for selecting odor-controlling substance” (Kao Corporation, priority 2015, dated 2020)

How the values were obtained:
ethyl vanillin odor = experiment: Sensory test of cross-adaptation, target odor ethyl vanillin; assay type: in vivo, human; conditions: panelists
odor of p-cresol = experiment: Sensory test of cross-adaptation, target odor p-cresol; assay type: in vivo, human; conditions: panelists, test sample smelled before target sample, FIG. 6C
Protocol: (§1) The cross-adaptation effect induced by the odorous substance evaluated in Example 2 was estimated by a sensory test. A glass bottle (No. 11, manufactured by Hakuyo Glass Co., Ltd., capacity: 110 mL) was charged with a target odorous substance to be used as a target sample. As the target odorous substance, muscone, guaiacol or p-cresol was used. As the muscone, a cotton ball soaked with 1 mg of muscone was used. As the guaiacol and p-cresol, 1 mL of a mineral oil (Sigma-Aldrich) solution in a concentration of 10 ppm was used. In a similar manner, a glass bottle was charged with a test substance to be used as a test sample. As the test sample, 5 mg of an ethyl vanillin powder, or 1 mL of a mineral oil (Sigma-Aldrich) solution of p-cresyl acetate, p-cresyl isobutyrate or p-methyl quinoline prepared to a concentration of 1,000 ppm was used.
(§2) The sensory test was performed by a single blind method by five to eight panelists. The target sample was first presented to each panelist, who was caused to replay on the odor intensity. Next, the test sample was presented for 2 minutes or until the odor could not be perceived. Thereafter, the target sample was presented again, and the panelist was caused to replay on the odor intensity. This series of operations was defined as one set, and the sensory test was carried out with four sets per day per panelist set as the upper limit. A recess of at least 10 minutes or more was provided between the sets.
The panelist was caused to plot the estimated intensity of the target odor on a straight line of 9.5 cm with both ends respectively provided with criteria “No odor” and “Strong odor”. A distance (A) between the position of the target odor intensity plotted in the initial estimate and the end of “No odor”, and a distance (B) between the position of the target odor intensity plotted in the second estimate and the end of “No odor” were obtained, so as to calculate percentage odor intensity of the initial estimate [B/A*100−100]. As this value is smaller, the intensity of the target odor perceived in the second estimate is suppressed stronger as compared with that in the initial estimate, namely, stronger cross-adaptation is induced. If this value is −100%, it means that the target odor was not perceived at all in the second estimate.

OR1A1 = biological target: T1, OR1A1 (Homo sapiens, UniProt Q9P1Q5); experiment: Luciferase reporter gene assay, OR1A1-expressing HEK293 cells; assay type: cell-based; conditions: screen, muscone 100 μM, FIG. 1
T1 construct: expressed in transfected cells; host or cells: HEK293
T1 sequence (Q9P1Q5 1-309): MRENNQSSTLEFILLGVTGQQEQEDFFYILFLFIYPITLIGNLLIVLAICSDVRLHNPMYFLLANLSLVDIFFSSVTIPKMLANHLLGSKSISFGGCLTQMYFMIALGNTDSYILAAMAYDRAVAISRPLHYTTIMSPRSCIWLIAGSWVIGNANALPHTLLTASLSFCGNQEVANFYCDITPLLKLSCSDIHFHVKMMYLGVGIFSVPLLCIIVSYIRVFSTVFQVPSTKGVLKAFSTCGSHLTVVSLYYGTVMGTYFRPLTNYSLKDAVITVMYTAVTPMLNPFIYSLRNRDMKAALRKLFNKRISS
Excerpt: On the basis of sequence information registered in GenBank, genes respectively encoding 370 human olfactory receptors shown in Tables 1-1 and 1-2 and genes respectively encoding the human olfactory receptors OR5AN1, OR10G4 and OR9Q2 (respectively set forth in SEQ ID NOS: 1, 3 and 5) were cloned. Each of the genes was cloned by the PCR using human genomic DNA person (G1521: Promega) as a template. Each gene amplified by the PCR was incorporated into a pENTR vector (Invitrogen) in accordance with the instruction, and was recombined to NotI and AscI sites produced downstream from a Flag-Rho tag sequence on a pME18S vector by using NotI and AscI sites present on the pENTR vector.
In 1) of Example 1, HEK293 cells on which the 370 human olfactory receptors were respectively expressed were produced. A reaction solution having a composition shown in Table 2 was prepared and allowed to stand still in a clean bench for 15 minutes, and the resultant was added by 4.4 μL per well in a 384-well plate (BioCoat). Subsequently, the HEK293 cells (20×10^4 cells/cm^2) were seeded by 40 μL per well, and the resultant was cultured for 24 hours in an incubator kept at 37° C. and 5% CO2.
In 2) of Example 1 and Examples 2 and 3, HEK293 cells in which the human olfactory receptor OR5AN1, OR10G4, OR9Q2 or OR1A1 was expressed were produced. […]
The olfactory receptor expressed on the HEK293 cells increases the intracellular cAMP amount by activating adenylate cyclase in conjugation with intracellular Gαs. In the measurement of odor response in this study, luciferase reporter gene assay for monitoring the increase of the intracellular cAMP amount as a luminescence value derived from a firefly luciferase gene (fluc2P-CRE-hygro) was employed. […] Under each of various stimulation conditions, a value fLuc/hRluc obtained by dividing a firefly luciferase-derived luminescence value by a Renilla luciferase-derived luminescence value was calculated. […] A dose-response curve was analyzed using Graph Pad Prism. […]

odor of guaiacol = experiment: Sensory test of cross-adaptation, target odor guaiacol; assay type: in vivo, human; conditions: panelists, test sample smelled before target sample, FIG. 6B
Protocol: as §1
as §2, with “A recess of at least 10 minutes or more was provided between the sets.” left out

C[C@@H]1CCCCCCCCCCCCC(=O)C1 [muscone, (R)-3-methyl-1-cyclopentadecanone]
cross-adaptation of ethyl vanillin odor induced by test substance (ethyl vanillin odor): not induced
cross-adaptation of p-cresol odor induced by test substance (odor of p-cresol): did not induce the cross-adaptation
responsiveness of OR1A1 compared with OR5AN1 (OR1A1): weaker responsiveness
cross-adaptation of guaiacol odor induced by test substance (odor of guaiacol): not induced
